# Test results taken from patent US11753407B2, “Compounds for treating spinal muscular atrophy” (PTC Therapeutics, Inc., priority 2012, dated 2023).
# Columns and labels:
# [1] = test system: neonatal SMA Δ7 homozygous knockout mice; test: Righting reflex in neonatal Δ7 SMA mice; type: in vivo; conditions: IP QD from PND 3, versus vehicle (FIG. 14)
# Method: The functional change in righting reflex of neonatal SMA mice is used to determine whether treatment with a test compound improves righting reflex.
# Protocol. SMA Δ7 homozygous knockout mice are dosed intraperitoneally (IP) with test compound or vehicle (100% DMSO) QD from PND 3 until the dose regimen is switched to an oral dose BID in 0.5% hydroxypropylmethyl cellulose (HPMC) with 0.1% Tween-80 at a dose 3.16-fold higher than the dose used for IP. The righting reflex time is measured as the time taken by a mouse to flip over onto its feet after being laid on its back. Righting reflex is measured five times for each mouse (allowing a maximal time of 30 sec for each try) with 5 minutes between each measurement. The righting reflex time for SMA Δ7 homozygous knockout mice treated with test compound or vehicle and age-matched heterozygous mice is measured on PND 10, 14 and 18 and plotted.
# [2] = test system: human SMN1 minigene mRNA (SMN1-A minigene) in HEK293H cells; test: Human SMN1 minigene mRNA end-point semi-quantitative RT-PCR splicing assay in cultured cells; type: cell-based; conditions: HEK293H cells transfected with SMN1-A minigene, increasing concentrations, 7 hours, end-point RT-PCR (FIG. 17)
# Text: The RT-PCR assay is used to visualize and quantify the levels of the human SMN1 minigene full length and Δ7 mRNA in primary cells and cell lines expressing the human SMN1 minigene construct treated with a test compound.
# Using the procedure for the preparation of the SMN2 minigene construct described in Biological Example 1, the SMN1 version of the minigene is generated by replacing the sixth nucleotide of exon 7 (a thymine residue) of the SMN2-A minigene construct to cytosine using site-directed mutagenesis. Thus, similar to the SMN2-A minigene construct, the SMN1 minigene construct has a single adenine residue inserted after nucleic residue 48 of exon 7. The SMN1 minigene construct is referred to as SMN1-A.
# Protocol. HEK293H cells (10,000 cells/well/199 μL) were transfected, using FuGENE-6 reagent, in a 96-well plate with 15 ng of the SMN1-A minigene reporter plasmid per well. Cells were incubated for 24 hours following transfection. Test compounds were serially diluted 3.16-fold in 100% DMSO to generate a 7-point concentration curve. A solution of test compound (1 μL, 200× in DMSO) was added to each test well. 1 μL DMSO was added to each control well. The plate was incubated for 7 hours in a cell culture incubator (37° C., 5% CO2, 100% relative humidity). The cells were then lysed in Cells-To-Ct lysis buffer and the lysates were stored at −80° C.
# Two SMN spliced mRNA are generated from the SMN1 minigene. The term “SMN1 minigene FL” refers to the first spliced product containing exon 7, corresponding to full length SMN1 mRNA. The term “SMN1 minigene Δ7” refers to the second product lacking exon 7.
# SMN minigene FL and Δ7 mRNA are amplified using the primers in Table 11. Primer SMN Forward C (SEQ ID NO. 11) hybridizes to a nucleotide sequence in exon 6 (nucleotide 43 to nucleotide 63), primer SMN Reverse A (SEQ ID NO. 2) hybridizes to a nucleotide sequence in the coding sequence of Firefly luciferase. The combination of these two oligonucleotides detects only SMN1 or SMN2 minigenes (RT-PCR) and will not detect endogenous SMN1 or SMN2 genes. Since the HEK293H cells used in Example 16 were transfected with only the human SMN1 minigene, RT-PCR can visualize and quantify only SMN1 minigene full-length and SMN1 minigene Δ7 mRNA.
# To synthesize cDNA, 5 μL of lysate, 4 μL of 5× iScript reaction mix, 1 μL of reverse transcriptase, and 10 μL of water are combined and incubated 5 min at 25° C. followed by 30 min at 42° C., followed by 5 min at 85° C. The cDNA solution is stored at −20° C.
# To perform endpoint PCR, 5 μL of cDNA, 0.2 μL of 100 μM forward primer, 0.2 μL of 100 μM reverse primer, and 22.5 μL of polymerase super mix are combined in a 96 well semiskirted PCR plate. PCR is carried out at the following temperatures for the indicated time: Step 1: 94° C. (2 min), Step 2: 94° C. […]
Compound,righting reflex [1],SMN1 minigene FL mRNA [2],SMN1 minigene Δ7 mRNA [2]
"COc1ccc(-c2cc(=O)n3cc(N4CCNCC4)ccc3n2)cc1OC [Cpd 6, 2-(3,4-dimethoxyphenyl)-7-(piperazin-1-yl)-4H-pyrido[1,2-a]pyrimidin-4-one]",improved compared to vehicle treated mice,progressively more SMN1 minigene FL mRNA,less SMN1 minigene Δ7 mRNA
"Cc1cn2nc(-c3cc(=O)n4cc(N5CCN(C)CC5)ccc4n3)cc2c(C)n1 [Cpd 170, 2-(4,6-dimethylpyrazolo[1,5-a]pyrazin-2-yl)-7-(4-methylpiperazin-1-yl)-4H-pyrido[1,2-a]pyrimidin-4-one]",improved compared to vehicle treated mice,progressively more SMN1 minigene FL mRNA,less SMN1 minigene Δ7 mRNA
